Data reported in patent US7501398B2, “Inhibitor of the folding of the HIV-1-protease as antiviral agent” (priority 2005, dated 2009).

Columns and labels:
HIV-1-Protease [1] = target: T1, HIV-1-Protease (Human immunodeficiency virus type 1 group M subtype B, UniProt P04585, C555A/C583A/L521I/L551I/Q495K); experiment: biochemical; assay type: biochemical; set-up: Recombinant HIV-1-Protease, expressed in E. Coli; purchased Sigma P7338; host or cells: E. coli; details: for Ki: pH 6, 37 °C; for variation in the kinetic parameters with respect to the uninhibited case: control peptides used in the same way as p-S8
Protocol: Recombinant HIV-1-Protease, expressed in E. Coli (Sigma Cat. no. P7338)contained five mutations to restrict autoproteolysis (Q7K, L33I, […]) and to restrict cysteine thiol oxidation (C67A and C95A). The enzyme was stored at (−70° C. as solution with concentration 25 mg/63 mL in dilute HCl, (pH=1.6)). A chromogenic substrate for HIV-1-PR (Sigma Cat. no. H5535) was obtained as a 1 mg desiccate, diluted with 0.1 ml of DMSO, and stored at −20° C. Protease assisted cleavage between the Nle and the Phe(NO2) residues of substrate entails a blue-shift of the absorption maximum (277 nm to 272 nm). It can be adequately monitored observing the continuous decrease of absorbance at […]. […] Res. Comm 168:274-280.
After that 1 mg of inhibitor peptide was dissolved in […] of DMSO, 4 ml of this solution were then diluted with 16 ml of DMSO and 180 ml of the buffer used for assay.
The buffer was prepared by adding […] NaCl, 1 mM EDTA and 1 mM dithiothreitol to a 20 mM phosphate buffer (pH 6).
The sequences of these control peptides are […] (SEQ ID NO:2) and […] (SEQ ID NO:3) corresponding to fragments 61-70 and 9-19, respectively, of the HIV-1-PR sequence, as well as the […] (SEQ ID NO:4) sequence, which is not related in any way to the protease.
Each measure was performed recording the absorbance at 300 nm (4.13 eV) in a standard UV-vis spectrophotometer (Jasco V-560). […] The sample in the cuvette was exposed to a constant temperature (37±0.05° C.) provided by continuous circulation of water from a water bath to the cell holder via a circulation pump.
After proper thermal stabilization of the substrate dissolved in the buffer (pH 6), the absorbance at 300 nm was recorded. We performed 6 measures spanning a range of substrate concentrations from 50 μM to 250 μM. The reaction was initiated by adding 2.78 μg of enzyme and recording the absorbance decrease at 300 nm for 1200 sec. In all the reported measures the enzyme has thus a nominal concentration of 1.8 μM. Since, to our knowledge, no accurate measure has been published of the dimerization constant of HIV-1-PR at pH=6.0, it is difficult to estimate precisely the active site concentration in our assay.
In all the reported measures the final concentration of inhibitor was [I0]=[…]. The Absorbance decrease at 300 nm was recorded for 1200 sec.

HIV-1-Protease [2] = target: T1, HIV-1-Protease; details: protease:peptide 1:3; protease alone 79%
Protocol: Ultraviolet CD spectra were recorded on a Jasco J-810 spectropolarimeter in nitrogen atmosphere at room temperature using 0.1 cm path-length quartz cell. Each spectrum was recorded between 260-200 nm. The data were collected at a rate of 10 nm/min with a wavelength step of 0.2 nm and a time constant of 2 s. The spectra were corrected with respect to the baseline and normalized to the aminoacidic concentration. The protein and the peptide were dissolved in a 20 mM phosphate buffer with 0.8 M NaCl at the same concentration used for the activity assays. The CD spectra were analyzed in terms of contribution of secondary structure elements using the K2D method based on comparison with CD spectra of proteins and peptides with known secondary structure.
The conformational properties of the inhibited protease have been investigated by means of UV circular dichroism experiments.

[3] = enzyme:peptide 1:3, pH 6, 37 °C

Row | Compound | inhibition mechanism (HIV-1-Protease [1]) | Ki (HIV-1-Protease [1]; dissociation constant KI (inhibitor-free enzyme)) | Ki (HIV-1-Protease [1]; dissociation constant K′I (inhibitor-substrate-enzyme complex)) | apparent dissociation constant K′M of the inhibited reaction (HIV-1-Protease [1]; [3]) | maximum velocity vmax of the inhibited reaction (HIV-1-Protease [1]; [3]) | beta-sheet content of protease plus peptide (CD) (HIV-1-Protease [2]) | initial velocity v0 of the reaction in presence of peptide (HIV-1-Protease [1]; [S0]=125 mM (FIG. 7(b))) | variation in the kinetic parameters with respect to the uninhibited case (HIV-1-Protease [1])
1 | CC[C@H](C)[C@H](NC(=O)[C@H](CCC(N)=O)NC(=O)[C@@H](NC(=O)[C@H](CC(C)C)NC(=O)[C@H](CC(C)C)NC(=O)[C@H](CC(N)=O)NC(=O)[C@H](CCCNC(=N)N)NC(=O)CNC(=O)[C@@H](NC(=O)[C@@H](NC(=O)[C@H](CC(N)=O)NC(C)=O)[C@@H](C)CC)[C@@H](C)CC)[C@@H](C)O)C(N)=O [p-S8, 83N, 84I, 85I, 86G, 87R, 88N, 89L, 90L, 91T, 92Q, 93I] | non-competitive | 380 ± 810 nM | 180 ± 234 nM | 332 ± 191 mM | 0.026 ± 0.011 mM/s | 45% |  | 
2 | QILIEICGHK (Fragment 61-70 of the HIV-1-PR sequence) [K1, reference compound] |  |  |  |  |  |  | 0.051 µM/s | no appreciable variation
3 | LSQETFDLWKLLPEN (Designed Peptide) [K3, reference compound] |  |  |  |  |  |  |  | no appreciable variation
